Experimental findings from paper PMC8878047 (Pharmaceutics, 2022) are described below.

Values after ≈ are worked out from the molar mass of the structure shown.

The conditions of data set [1]: rat, in vivo, po.
The nature of data set [2]: Water solubility by UV-Vis (Lambert–Beer law). The format is physicochemical. To be noted: thermodynamic from solid, saturated aqueous solution, 30× dilution, room temperature / 35 °C (method). The source says: We diluted this solution into a series of working solutions to measure their UV-Vis spectra.
The test system of data set [3] is Pseudomonas aeruginosa. Description: In vitro antibacterial activity (MIC/MBC, doubling dilution). In kind it is cell-based. To be noted: P. aeruginosa, 37 °C, 24 h. How it is done: (§1) The clinically typical pathogens (Staphylococcus aureus, Escherichia coli, Pseudomonas aeruginosa, Salmonellosis typhoidal and Proteus vulgaris) were obtained from the Department of Microbiology and Immunology of Guangxi Medical University. We cultured the bacterial suspension of five pathogens in bouillon culture-medium at 37 °C, and diluted it into 0.5 McFarland Standard with bioclean normal saline (the volume ratio of each bacterial suspension and bioclean normal saline was 1:1000, and the concentration of bacterial suspension was 1~2 × 10^8 CFU/mL). […] We carried out the assays for MIC and MBC evaluation by doubling the dilution under sterile operation on the clean bench. To be specific, we set the sterile test tubes numbered 1–10 for comparison according to the half-dilution method. We added the broth medium to each test tube to fix the final volume to be 2 mL. […] Then, we filled each tube with 50 μL of inoculated bacteria colony, except for tube no. 9, which was the negative control. The final colony concentration in each test tube was 2 × 10^5 CFU/mL. Tube no. 10 was set as a blank without the tested drug. […] We repeated all tests in triplicate.

The subject of data set [4] is Proteus vulgaris. The description is as above. The format is cell-based. To be noted: P. vulgaris, 37 °C, 24 h. As to the method:
as §1

In data set [5] the test system is Staphylococcus aureus. Described as above. The format is cell-based. To be noted: S. aureus, 37 °C, 24 h. How it is done: as §1
Data set [6] concerns KM mice. The format is in vivo. Particulars: high-dose group, dead mice, HE staining. As to the method:
After the acute toxicity test, the dead mice after oral administration and the surviving mice at the end of the observation period were promptly dissected and pathologically examined. […] We dissected the important organs (heart, liver, spleen, lung, kidney, large intestine, and small intestine) of dead mice and normal mice in the high-dose group of each drug solution. Then, the main organs were fixed in 10% buffered formalin and embedded in paraffin for 1–4 h. They were histopathologically examined under the optical microscope after slicing and staining with hematoxylin-eosin (HE) staining. No fixed parameters were compared between the treatment and control groups.

In data set [1] (male, SD), `CCN1CCN(c2cc3c(cc2F)c(=O)c(C(=O)O)cn3C2CC2)CC1` [EFX, enrofloxacin, reference compound] showed a Cl of 0.6167 mL/min/kg and a Vd of 1.05316 L/kg. Moreover, the Tmax in data set [1] is reported as 1 H. Further, the concentration in solution in data set [2] (solubility) was 204 µg/mL (≈ 568 µM). In data set [3], the MBC – broadly, the lowest tested concentration that kills the bacteria rather than only halting them – worked out at 0.125 µg/mL (≈ 0.348 µM) and the minimum inhibitory concentration (MIC) – broadly, the lowest concentration found to suppress growth – was 0.125 µg/mL (≈ 0.348 µM). In data set [4], this compound came in with an MBC of 0.125 µg/mL (≈ 0.348 µM) and an MIC of 0.125 µg/mL (≈ 0.348 µM). Moreover, in data set [5], the MBC was found to be 0.25 µg/mL (≈ 0.696 µM) and inhibition of growth (MIC) required 0.25 µg/mL (≈ 0.696 µM).
As to `CCN1CCN(c2cc3c(cc2F)c(=O)c(C(=O)[O-])cn3C2CC2)CC1.CCN1CCN(c2cc3c(cc2F)c(=O)c(C(=O)[O-])cn3C2CC2)CC1.O.O.O.O.[Ca+2]` [EFX-Ca, [Ca(EFX)2(H2O)4]·H2O], in data set [6], the “histopathological finding in kidney tissue” value was “enlargement of the renal capsule” and the “histopathological finding in lung tissue” value is recorded as “significant inflammatory cell infiltration of the lung tissue”.
